pKi: −log10 of the molar value.
What was measured:
[1] = molecular target: Histamine H4 receptor (Homo sapiens) (UniProt Q9H3N8); experiment: Displacement of [3H]histamine from human H4 receptor at 1 uM relative to control
[2] = molecular target: T1, Histamine H3 receptor (Homo sapiens, UniProt Q9Y5N1); experiment: Displacement of [3H]Nalpha-methylhistamine from human H3 receptor at 1 uM relative to control
[3] = molecular target: T1, Histamine H3 receptor; experiment: Displacement of [3H]Nalpha-methylhistamine from human H3 receptor

Chain of Histamine H4 receptor (Homo sapiens) (Q9H3N8 whole entry): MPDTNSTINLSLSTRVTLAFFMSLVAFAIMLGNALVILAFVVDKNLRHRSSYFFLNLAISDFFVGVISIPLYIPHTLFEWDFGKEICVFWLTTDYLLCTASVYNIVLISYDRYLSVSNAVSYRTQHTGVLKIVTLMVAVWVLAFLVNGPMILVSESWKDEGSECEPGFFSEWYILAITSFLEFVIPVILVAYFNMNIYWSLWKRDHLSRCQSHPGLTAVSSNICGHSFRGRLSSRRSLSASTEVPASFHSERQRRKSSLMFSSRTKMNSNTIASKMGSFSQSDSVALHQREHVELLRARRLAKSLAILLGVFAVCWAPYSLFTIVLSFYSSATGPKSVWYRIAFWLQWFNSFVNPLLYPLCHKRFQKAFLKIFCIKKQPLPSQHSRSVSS
T1 sequence (Q9Y5N1 whole entry): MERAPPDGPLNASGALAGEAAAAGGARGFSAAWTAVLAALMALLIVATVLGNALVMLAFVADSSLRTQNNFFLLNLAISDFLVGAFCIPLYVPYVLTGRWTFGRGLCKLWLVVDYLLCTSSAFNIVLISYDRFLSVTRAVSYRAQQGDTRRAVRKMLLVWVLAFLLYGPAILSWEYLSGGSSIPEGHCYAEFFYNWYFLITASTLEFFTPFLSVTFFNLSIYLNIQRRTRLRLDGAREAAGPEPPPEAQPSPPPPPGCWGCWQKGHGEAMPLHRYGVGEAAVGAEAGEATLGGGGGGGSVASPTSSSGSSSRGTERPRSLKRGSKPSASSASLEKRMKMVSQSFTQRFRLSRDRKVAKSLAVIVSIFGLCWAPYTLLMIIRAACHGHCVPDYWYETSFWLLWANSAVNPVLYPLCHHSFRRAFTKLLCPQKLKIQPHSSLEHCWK

| SMILES | inhibition [1] [%] | inhibition [2] [%] | pKi [3] |
| --- | --- | --- | --- |
| Clc1nc(NCCN2CCOCC2)c2ccn(Cc3ccccc3)c2n1 | < 80 | < 80 | – |
| Clc1nc(NCCN2CCOCC2)c2ccn(Cc3ccc4ccccc4c3)c2n1 | < 80 | < 80 | – |
| Clc1nc(N2CCC(N3CCOCC3)CC2)c2ccn(Cc3cccc4ccccc34)c2n1 | < 80 | < 80 | – |
| CN1CCN(c2nc(Cl)nc3c2ccn3Cc2ccc3ccccc3c2)CC1 | < 80 | < 80 | – |
| CN1CCN(c2nc(Cl)nc3c2ccn3Cc2ccccc2)CC1 | < 80 | < 80 | – |
| Clc1nc(N2CCC(N3CCOCC3)CC2)c2ccn(Cc3ccccc3)c2n1 | < 80 | < 80 | 5.97 |
| Clc1nc(N2CCC(N3CCOCC3)CC2)c2ccn(Cc3ccc4ccccc4c3)c2n1 | < 80 | < 80 | – |
| Clc1nc(N2CCC(N3CCCCC3)CC2)c2ccn(Cc3ccccc3)c2n1 | < 80 | 96 | 6.31 |
| Clc1nc(NCCN2CCOCC2)c2ccn(Cc3cccc4ccccc34)c2n1 | < 80 | < 80 | – |
| Clc1nc(N2CCC(N3CCCCC3)CC2)c2ccn(Cc3ccc4ccccc4c3)c2n1 | < 80 | 95 | 6.90 |
| CN1CCN(c2nc(Cl)nc3c2ccn3Cc2cccc3ccccc23)CC1 | < 80 | < 80 | – |
| Clc1nc(N2CCC(N3CCCCC3)CC2)c2ccn(Cc3cccc4ccccc34)c2n1 | < 80 | 95 | 6.83 |

— ChEMBL document CHEMBL4229453, “New lead elements for histamine H3 receptor ligands in the pyrrolo[2,3-d]pyrimidine class” (Bioorg Med Chem Lett, 2018)
